Results as given in ChEMBL document CHEMBL1201862, “PubChem BioAssay data set” (2004).
The source made the active and inactive calls.

Experiments:
[1] = system: CHO-K1; test: (§1) Counterscreen for antagonists of the orexin 1 receptor (OX1R; HCRTR1): Homogeneous time resolved fluorescence (HTRF)-based cell-based dose response assay to identify antagonists of the parental CHO-K1 cell line. [Related pubchem assays (depositor defined):AID434989, AID435008, AID463079, AID485270, AID492963, AID492964, AID492965, AID493232, AID504699, AID504701]; assay type: functional; conditions: Cricetulus griseus
[2] = target: T1, Orexin/Hypocretin receptor type 1 (Homo sapiens, UniProt O43613); test: Homogeneous Time Resolved Fluorescence (HTRF)-based cell-based high throughput dose response assay for antagonists of the orexin 1 receptor (OX1R; HCRTR1). [Related pubchem assays (depositor defined):AID434989, AID435008, AID463079, AID485270, AID492963, AID492964, AID492965, AID493232, AID504717, AID504718]; assay type: functional
T1 sequence (O43613 whole entry): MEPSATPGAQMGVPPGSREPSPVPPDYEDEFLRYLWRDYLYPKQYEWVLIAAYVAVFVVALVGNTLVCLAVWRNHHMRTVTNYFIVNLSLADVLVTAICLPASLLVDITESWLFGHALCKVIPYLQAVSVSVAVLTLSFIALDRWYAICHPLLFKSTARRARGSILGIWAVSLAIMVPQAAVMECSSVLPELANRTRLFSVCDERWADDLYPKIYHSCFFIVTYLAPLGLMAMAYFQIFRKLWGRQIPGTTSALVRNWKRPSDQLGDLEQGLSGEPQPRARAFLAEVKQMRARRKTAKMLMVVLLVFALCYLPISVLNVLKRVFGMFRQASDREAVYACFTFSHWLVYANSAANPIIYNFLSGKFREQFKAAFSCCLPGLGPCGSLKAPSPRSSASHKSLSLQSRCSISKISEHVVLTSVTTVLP

[3] = as §1, with “Fluorescence-based” for “Homogeneous time resolved fluorescence (HTRF)-based”, “cell-based high throughput” for “cell-based”, “CHO” for “CHO-K1”; assay type: functional
[4] = target: T2, Orexin receptor type 2 (Homo sapiens, UniProt O43614); test: Counterscreen assay for antagonists of the orexin 1 receptor (OX1R; HCRTR1): Fluorescence-based cell-based dose response assay for antagonists of the orexin 2 receptor (OX2R; HCRTR2), run by assay provider.; assay type: functional
T2 sequence (O43614 whole entry): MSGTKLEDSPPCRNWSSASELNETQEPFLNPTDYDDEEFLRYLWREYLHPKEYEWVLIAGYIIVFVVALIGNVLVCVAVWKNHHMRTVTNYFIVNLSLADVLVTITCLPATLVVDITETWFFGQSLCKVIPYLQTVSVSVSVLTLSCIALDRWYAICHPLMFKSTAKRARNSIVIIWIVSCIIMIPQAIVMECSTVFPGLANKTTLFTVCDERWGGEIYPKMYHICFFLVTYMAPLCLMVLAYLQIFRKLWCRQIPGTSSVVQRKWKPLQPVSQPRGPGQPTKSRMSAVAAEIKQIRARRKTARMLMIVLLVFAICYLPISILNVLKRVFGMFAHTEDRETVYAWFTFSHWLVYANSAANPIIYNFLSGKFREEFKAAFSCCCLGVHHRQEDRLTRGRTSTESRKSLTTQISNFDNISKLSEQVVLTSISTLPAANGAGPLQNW

[5] = target: T2, Orexin receptor type 2; test: Counterscreen assay for antagonists of the orexin 1 receptor (OX1R; HCRTR1): Homogeneous Time Resolved Fluorescence (HTRF)-based cell-based dose response assay for antagonists of the orexin 2 receptor (OX2R; HCRTR2), run by assay provider.; assay type: functional
[6] = target: T1, Orexin/Hypocretin receptor type 1; test: Fluorescence-based cell-based high throughput dose response assay for antagonists of the orexin 1 receptor (OX1R; HCRTR1). [Related pubchem assays (depositor defined):AID434989, AID435008, AID463079, AID485270, AID492963, AID492964, AID492965, AID493232, AID504717, AID504718]; assay type: functional
[7] = target: T3, Sentrin-specific protease 8 (Homo sapiens, UniProt Q96LD8); assay type: functional
T3 sequence (Q96LD8 whole entry): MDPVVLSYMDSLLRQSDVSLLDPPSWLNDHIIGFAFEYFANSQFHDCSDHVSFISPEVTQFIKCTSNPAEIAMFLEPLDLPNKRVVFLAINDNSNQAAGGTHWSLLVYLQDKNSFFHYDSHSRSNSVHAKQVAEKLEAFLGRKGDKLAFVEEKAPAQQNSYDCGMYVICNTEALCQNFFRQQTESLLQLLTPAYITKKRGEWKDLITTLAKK

[8] = target: T3, Sentrin-specific protease 8; assay type: functional; remark: listed apart in the source
[9] = target: T4, Caspase-3 (Homo sapiens, UniProt P42574); test: Dose-response confirmation of uHTS inhibitor hits of Sentrin-Specific Protease 8 in a Caspase-3 Fluorescence assay.; assay type: functional
T4 sequence (P42574 whole entry): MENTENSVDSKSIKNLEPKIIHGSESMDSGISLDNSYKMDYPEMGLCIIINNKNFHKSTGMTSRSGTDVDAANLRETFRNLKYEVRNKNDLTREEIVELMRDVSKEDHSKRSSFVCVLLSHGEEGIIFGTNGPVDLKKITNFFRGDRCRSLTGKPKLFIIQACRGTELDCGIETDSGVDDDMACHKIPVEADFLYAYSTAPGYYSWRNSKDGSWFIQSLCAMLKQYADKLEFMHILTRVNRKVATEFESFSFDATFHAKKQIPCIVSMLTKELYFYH

[10] = target: Fructose-bisphosphate aldolase (Mycobacterium tuberculosis, UniProt P9WQA3); test: Fluorescence-based biochemical high throughput dose response assay for inhibitors of the fructose-bisphosphate aldolase (FBA) of M. tuberculosis.; assay type: functional
[11] = target: T5, Mitochondrial peptide methionine sulfoxide reductase (Bos taurus, UniProt P54149); test: Absorbance-based biochemical high throughput dose response assay for activators of Methionine sulfoxide reductase A (MsrA).; assay type: functional
T5 sequence (P54149 whole entry): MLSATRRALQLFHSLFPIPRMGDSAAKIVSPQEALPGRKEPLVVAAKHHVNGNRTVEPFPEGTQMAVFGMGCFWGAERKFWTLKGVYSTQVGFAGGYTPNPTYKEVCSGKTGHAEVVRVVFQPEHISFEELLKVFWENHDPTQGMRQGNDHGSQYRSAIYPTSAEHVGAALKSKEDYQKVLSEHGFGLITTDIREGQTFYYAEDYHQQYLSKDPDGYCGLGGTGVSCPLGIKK

[12] = target: Ras and Rab interactor 1/Tyrosine-protein kinase ABL1 (Homo sapiens, UniProt P00519+Q13671); assay type: functional;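 also: biochemical TR-FRET dose-response test measuring inhibition of binding between Rin1 and Abl proteins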
[13] = nonselective StAR promoter luciferase inhibitors – cell-based, luminescence, luciferase reporter, counter-screen for LRH-1 inverse agonist project, dose response (AID 651969); assay type: functional
[14] = target: Steroidogenic factor 1 (Homo sapiens, UniProt Q13285); test: Counterscreen for inverse agonists of the liver receptor homolog-1 (LRH-1; NR5A2): Luminescence-based cell-based high throughput dose response assay to identify inverse agonists of the Steroidogenic Factor 1 Nuclear Receptor (SF1; NR5A1).; assay type: functional
[15] = target: Nuclear receptor subfamily 5 group A member 2 (Homo sapiens, UniProt O00482); assay type: functional, cell-based;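 also: HEK293T cells transfected with LRH-1 and a StAR promoter luciferase reporter; potency for inhibitors that lower LRH-1 driven reporter light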
Chain of Nuclear receptor subfamily 5 group A member 2 (O00482 whole entry): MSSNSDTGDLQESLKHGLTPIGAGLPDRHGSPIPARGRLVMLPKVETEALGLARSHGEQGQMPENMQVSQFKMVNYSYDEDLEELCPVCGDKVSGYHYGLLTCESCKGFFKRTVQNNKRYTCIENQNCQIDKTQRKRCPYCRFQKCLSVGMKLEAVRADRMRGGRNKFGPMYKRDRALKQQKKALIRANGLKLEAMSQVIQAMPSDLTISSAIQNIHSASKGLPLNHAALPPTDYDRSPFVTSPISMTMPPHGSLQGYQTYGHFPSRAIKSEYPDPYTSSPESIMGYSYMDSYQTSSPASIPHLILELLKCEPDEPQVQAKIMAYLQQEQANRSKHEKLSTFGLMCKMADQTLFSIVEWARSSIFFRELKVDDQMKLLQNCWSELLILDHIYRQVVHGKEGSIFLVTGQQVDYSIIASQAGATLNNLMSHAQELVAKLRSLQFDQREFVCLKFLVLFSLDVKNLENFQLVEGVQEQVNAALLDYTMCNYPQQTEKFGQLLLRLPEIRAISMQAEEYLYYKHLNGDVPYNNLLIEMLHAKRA

Chain of Steroidogenic factor 1 (Q13285 whole entry): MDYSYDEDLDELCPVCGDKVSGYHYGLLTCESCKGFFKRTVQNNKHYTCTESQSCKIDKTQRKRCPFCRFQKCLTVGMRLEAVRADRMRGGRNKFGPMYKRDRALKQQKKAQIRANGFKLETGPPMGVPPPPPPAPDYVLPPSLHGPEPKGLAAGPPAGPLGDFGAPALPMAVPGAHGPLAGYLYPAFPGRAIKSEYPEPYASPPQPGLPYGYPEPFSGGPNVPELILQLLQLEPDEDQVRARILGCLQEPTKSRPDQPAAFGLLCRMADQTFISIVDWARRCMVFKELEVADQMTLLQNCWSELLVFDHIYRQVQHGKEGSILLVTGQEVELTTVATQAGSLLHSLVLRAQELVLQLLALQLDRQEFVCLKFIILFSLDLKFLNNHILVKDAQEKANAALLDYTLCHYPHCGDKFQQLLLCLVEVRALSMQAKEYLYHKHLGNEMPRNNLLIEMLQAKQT
Chain of Ras and Rab interactor 1/Tyrosine-protein kinase ABL1 (P00519 whole entry): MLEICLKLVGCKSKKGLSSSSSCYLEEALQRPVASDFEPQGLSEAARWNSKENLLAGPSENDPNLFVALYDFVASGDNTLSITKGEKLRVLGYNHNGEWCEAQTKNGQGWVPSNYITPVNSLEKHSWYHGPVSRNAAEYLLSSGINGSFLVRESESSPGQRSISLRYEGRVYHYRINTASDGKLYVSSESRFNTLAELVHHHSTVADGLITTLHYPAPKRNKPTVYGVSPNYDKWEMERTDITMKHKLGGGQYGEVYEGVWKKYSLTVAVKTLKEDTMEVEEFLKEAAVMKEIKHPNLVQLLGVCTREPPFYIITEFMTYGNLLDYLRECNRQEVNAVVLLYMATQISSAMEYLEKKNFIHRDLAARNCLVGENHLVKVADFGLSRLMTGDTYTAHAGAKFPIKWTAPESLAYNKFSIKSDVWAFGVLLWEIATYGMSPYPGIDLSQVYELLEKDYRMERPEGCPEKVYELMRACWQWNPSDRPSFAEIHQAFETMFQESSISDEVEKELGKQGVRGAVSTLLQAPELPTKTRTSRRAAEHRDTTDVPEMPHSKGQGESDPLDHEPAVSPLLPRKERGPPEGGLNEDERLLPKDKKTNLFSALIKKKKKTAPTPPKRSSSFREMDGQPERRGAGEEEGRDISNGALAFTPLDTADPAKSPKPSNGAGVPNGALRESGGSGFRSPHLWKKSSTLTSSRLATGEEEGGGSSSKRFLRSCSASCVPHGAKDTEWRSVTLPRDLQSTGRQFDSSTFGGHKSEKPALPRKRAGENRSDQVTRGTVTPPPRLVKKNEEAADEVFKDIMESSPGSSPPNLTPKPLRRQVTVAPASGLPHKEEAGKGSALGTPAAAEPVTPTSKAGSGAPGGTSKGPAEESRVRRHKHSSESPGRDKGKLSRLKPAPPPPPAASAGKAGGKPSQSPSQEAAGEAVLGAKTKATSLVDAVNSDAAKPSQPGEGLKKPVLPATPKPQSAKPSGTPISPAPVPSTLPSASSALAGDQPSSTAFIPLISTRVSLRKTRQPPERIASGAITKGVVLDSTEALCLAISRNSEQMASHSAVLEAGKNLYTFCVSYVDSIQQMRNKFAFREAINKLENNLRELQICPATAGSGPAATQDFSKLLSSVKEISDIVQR
Chain of Ras and Rab interactor 1/Tyrosine-protein kinase ABL1 (Q13671 whole entry): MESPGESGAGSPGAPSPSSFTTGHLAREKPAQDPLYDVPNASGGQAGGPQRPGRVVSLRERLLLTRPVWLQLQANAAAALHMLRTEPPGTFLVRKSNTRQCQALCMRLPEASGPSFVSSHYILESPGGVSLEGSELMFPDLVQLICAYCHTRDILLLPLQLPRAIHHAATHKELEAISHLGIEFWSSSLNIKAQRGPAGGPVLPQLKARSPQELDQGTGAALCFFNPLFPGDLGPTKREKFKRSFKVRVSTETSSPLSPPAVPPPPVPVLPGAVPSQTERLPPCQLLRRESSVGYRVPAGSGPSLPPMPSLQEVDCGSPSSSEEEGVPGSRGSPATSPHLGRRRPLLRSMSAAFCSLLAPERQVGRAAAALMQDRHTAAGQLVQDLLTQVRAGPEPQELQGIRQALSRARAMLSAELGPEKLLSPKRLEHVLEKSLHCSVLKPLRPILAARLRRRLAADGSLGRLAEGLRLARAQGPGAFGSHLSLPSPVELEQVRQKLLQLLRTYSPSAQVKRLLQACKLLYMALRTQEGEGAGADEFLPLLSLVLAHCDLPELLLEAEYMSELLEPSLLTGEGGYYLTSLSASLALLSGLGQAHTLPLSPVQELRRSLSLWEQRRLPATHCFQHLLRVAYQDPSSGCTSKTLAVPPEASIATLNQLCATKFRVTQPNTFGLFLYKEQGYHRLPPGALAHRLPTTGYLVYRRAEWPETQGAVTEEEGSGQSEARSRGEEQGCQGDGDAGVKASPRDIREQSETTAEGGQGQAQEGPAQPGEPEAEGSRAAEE
Chain of Fructose-bisphosphate aldolase (P9WQA3 whole entry): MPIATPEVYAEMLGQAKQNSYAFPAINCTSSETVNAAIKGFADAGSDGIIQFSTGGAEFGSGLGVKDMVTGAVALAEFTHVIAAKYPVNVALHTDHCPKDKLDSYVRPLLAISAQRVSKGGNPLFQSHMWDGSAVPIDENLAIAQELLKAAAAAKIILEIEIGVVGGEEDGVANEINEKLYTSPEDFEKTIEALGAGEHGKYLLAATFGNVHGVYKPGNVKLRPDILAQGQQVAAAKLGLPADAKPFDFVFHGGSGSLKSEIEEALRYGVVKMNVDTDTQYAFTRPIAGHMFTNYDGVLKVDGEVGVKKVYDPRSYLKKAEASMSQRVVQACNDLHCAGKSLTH

Cc1nc2c(-c3ccccc3)c(C)nn2c(N)c1-c1ccccc1
IC50 [1]: > 66.2 µM (inactive)
IC50 [2]: 5.34 µM (active)
IC50 [3]: 49 µM (inactive)
IC50 [4]: 24.9 µM (inactive)
IC50 [5]: > 50 µM (inactive)
IC50 [6]: 13.3 µM (inactive)

O=C(Cc1ccccc1)c1nc2ccccc2s1
IC50 [7]: 26.7 µM (active)
IC50 [8]: 6.06 µM (active)
IC50 [9]: 25 µM (active)

COc1ccc2cc3cc(C(=O)N4CCN(C5CCCCC5)CC4)oc3nc2c1
IC50 [10]: 0.92 µM (active)

O=C1C(Cl)=C(NCc2ccco2)C(=O)c2ccccc21
EC50 [11]: > 104 µM (inactive)

CN(CCc1ccccc1)C(=O)c1ccc(NC(=O)Cc2ccc(NC(=O)C3CCN(C(=O)C4CCCCC4)CC3)cc2)cc1
IC50 [12]: 11.2 µM (inactive)

O=C(CN1C(=O)NC2(CCCC2)C1=O)NCCc1ccc(F)cc1
IC50 [13]: 35.9 µM (inactive)
IC50 [14]: 6.2 µM (active)
IC50 [15]: 35.9 µM (inactive)

Cn1c(N)c(C(=O)N/N=C/c2ccccc2)sc1=S
IC50 [1]: > 66.2 µM (inactive)
IC50 [2]: 1.59 µM (active)
IC50 [3]: > 49.7 µM (inactive)
IC50 [4]: > 88.8 µM (inactive)
IC50 [5]: > 50 µM (inactive)
IC50 [6]: 2.75 µM (active)

COc1ccc(/C=N/NC(=O)c2ccc(NC(=O)c3cccc([N+](=O)[O-])c3)cc2)c(OC)c1
IC50 [13]: 35.9 µM (inactive)
IC50 [14]: 3.07 µM (active)
IC50 [15]: 23.1 µM (inactive)
